Measured values published in ChEMBL document CHEMBL1201862, “PubChem BioAssay data set” (2004).
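These data come from cells grown in 96-well plates and exposed to compound for 48 hours at five concentrations. Abbreviation: GI50, concentration required for 50% inhibition of growth.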 Active and inactive are the calls of the source. No stated cut-off is given here; in the data, active = GI50 up to about 1.1 µM and inactive = higher.

Experiments:
Assay in all cases: NCI anticancer screen, dose series, 48 h
TK-10 = system: TK-10
SK-OV-3 = system: SK-OV-3
HL-60 = system: HL-60
SF-295 = system: SF-295
DMS-114 = system: DMS-114
NCI-H226 = system: NCI-H226
EKVX = system: EKVX
DMS-273 = system: DMS-273
A498 = system: A498
HCT-116 = system: HCT-116
SK-MEL-28 = system: SK-MEL-28
Malme-3M = system: Malme-3M
SK-MEL-5 = system: SK-MEL-5
SN12C = system: SN12C

Measured: GI50

O=C(Nc1ccc(Cl)cc1Cl)C1C(=O)N(c2ccc(Cl)cc2Cl)C(=O)/C1=N\Nc1ccc([N+](=O)[O-])cc1[N+](=O)[O-] (centres undefined)
inactive: TK-10 > 100 µM | SK-OV-3 > 100 µM | HL-60 35.2 µM | SF-295 45.3 µM | DMS-114 13.2 µM | NCI-H226 39.6 µM | EKVX > 100 µM | DMS-273 46.6 µM | A498 47.5 µM | HCT-116 26.9 µM | SK-MEL-28 47.8 µM | Malme-3M 64 µM | SK-MEL-5 79.8 µM | SN12C 74.6 µM

CCOC(=O)C1=C(C)C2C3C(=O)OC(=O)C3C1(C)C1C(=O)OC(=O)C21 (centres undefined)
inactive: TK-10 > 100 µM | SK-OV-3 > 100 µM | HL-60 > 100 µM | SF-295 > 100 µM | DMS-114 > 100 µM | NCI-H226 > 100 µM | EKVX > 100 µM | DMS-273 > 100 µM | A498 > 100 µM | HCT-116 > 100 µM | SK-MEL-28 > 100 µM | Malme-3M > 100 µM | SK-MEL-5 > 100 µM | SN12C > 100 µM

O=C1NC(=O)C2C(=O)NC(=O)C1C2Cc1ccco1 (centres undefined)
inactive: TK-10 > 100 µM | SK-OV-3 > 100 µM | HL-60 > 100 µM | SF-295 > 100 µM | DMS-114 > 100 µM | NCI-H226 > 100 µM | EKVX > 100 µM | DMS-273 > 100 µM | A498 > 100 µM | SK-MEL-28 > 100 µM | Malme-3M > 100 µM | SK-MEL-5 > 100 µM | SN12C > 100 µM

CCOC(=O)/C=C1\Nc2ccccc2-n2nnnc21
inactive: TK-10 > 100 µM | SK-OV-3 > 100 µM | HL-60 > 100 µM | SF-295 > 100 µM | DMS-114 > 100 µM | NCI-H226 > 100 µM | EKVX > 100 µM | DMS-273 30.3 µM | A498 > 100 µM | HCT-116 > 100 µM | SK-MEL-28 > 100 µM | Malme-3M > 100 µM | SK-MEL-5 > 100 µM | SN12C > 100 µM

C1=C(c2ccccc2)C(OC2Oc3ccccc3C=C2c2ccccc2)Oc2ccccc21 (centres undefined)
inactive: TK-10 > 100 µM | SK-OV-3 > 100 µM | HL-60 > 100 µM | SF-295 > 100 µM | DMS-114 > 100 µM | NCI-H226 > 100 µM | EKVX > 100 µM | DMS-273 > 100 µM | A498 > 100 µM | HCT-116 > 100 µM | SK-MEL-28 > 100 µM | Malme-3M > 100 µM | SK-MEL-5 > 100 µM | SN12C > 100 µM

OC1=CN=C(C2CC2)Oc2ccccc21
inactive: TK-10 > 100 µM | SK-OV-3 > 100 µM | HL-60 > 100 µM | SF-295 83.2 µM | DMS-114 41 µM | NCI-H226 15.5 µM | EKVX > 100 µM | DMS-273 > 100 µM | A498 > 100 µM | HCT-116 > 100 µM | SK-MEL-28 > 100 µM | Malme-3M > 100 µM | SK-MEL-5 > 100 µM | SN12C > 100 µM

Cc1ccc(NC(=O)CCc2nnc(S)[nH]2)cc1
inactive: TK-10 > 100 µM | SK-OV-3 > 100 µM | HL-60 > 100 µM | SF-295 > 100 µM | DMS-114 39.5 µM | NCI-H226 > 100 µM | EKVX > 100 µM | DMS-273 > 100 µM | A498 > 100 µM | HCT-116 > 100 µM | SK-MEL-28 > 100 µM | Malme-3M > 100 µM | SK-MEL-5 > 100 µM | SN12C > 100 µM

Nc1cn(C2OC(CC(c3ccccc3)(c3ccccc3)c3ccccc3)C(O)C2O)c(=O)[nH]c1=O (centres undefined)
inactive: TK-10 26.4 µM | SK-OV-3 34.7 µM | HL-60 17.3 µM | SF-295 30.1 µM | DMS-114 15.5 µM | NCI-H226 73.8 µM | EKVX 33.7 µM | DMS-273 33.3 µM | A498 39.6 µM | HCT-116 17.6 µM | SK-MEL-28 29.3 µM | Malme-3M 23.5 µM | SK-MEL-5 20.5 µM | SN12C 22.1 µM

CC(=O)C1=C(O)C(N)C2Cc3c(c(O)c4c(O)c(C)ccc4c3C)C(=O)C2(O)C1=O (centres undefined)
inactive: TK-10 1.93 µM | SK-OV-3 3.53 µM | HL-60 2.23 µM | SF-295 1.26 µM | DMS-114 2.38 µM | NCI-H226 1.56 µM | EKVX 1.89 µM | DMS-273 1.73 µM | A498 2.8 µM | HCT-116 1.28 µM | SK-MEL-28 2.06 µM | Malme-3M 1.29 µM | SK-MEL-5 1.19 µM | SN12C 1.37 µM

Cc1cc(O)c(C=O)c(C)c1CCC1(C)C=Cc2cc(O)ccc2O1 (centres undefined)
inactive: TK-10 46.5 µM | SK-OV-3 23.9 µM | HL-60 22.8 µM | SF-295 23.4 µM | DMS-114 18.4 µM | NCI-H226 26.5 µM | EKVX 29.5 µM | DMS-273 21.5 µM | A498 39.8 µM | HCT-116 16.8 µM | SK-MEL-28 22.7 µM | Malme-3M 24.8 µM | SK-MEL-5 25.2 µM | SN12C 29.3 µM

N#C/C(=C1\SC(/N=N/c2ccccc2)C(=O)N1c1ccccc1)c1nc2ccccc2[nH]1 (centres undefined)
inactive: TK-10 48.9 µM | SK-OV-3 66.5 µM | HL-60 48.8 µM | SF-295 61.2 µM | DMS-114 > 100 µM | NCI-H226 71.1 µM | EKVX > 100 µM | DMS-273 45.7 µM | A498 > 100 µM | HCT-116 > 100 µM | SK-MEL-28 > 100 µM | Malme-3M > 100 µM | SK-MEL-5 57 µM | SN12C > 100 µM

O=C(CC1(O)C(=O)Nc2ccc([N+](=O)[O-])cc21)c1ccc2ccccc2c1 (centres undefined)
inactive: TK-10 > 100 µM | SK-OV-3 > 100 µM | HL-60 > 100 µM | SF-295 > 100 µM | DMS-114 > 100 µM | NCI-H226 > 100 µM | EKVX > 100 µM | DMS-273 > 100 µM | A498 > 100 µM | HCT-116 > 100 µM | SK-MEL-28 > 100 µM | Malme-3M > 100 µM | SN12C > 100 µM

O=S(=O)(O)c1ccc([Se][Se]c2ccc(S(=O)(=O)O)cc2)cc1
inactive: TK-10 > 100 µM | SK-OV-3 > 100 µM | HL-60 > 100 µM | SF-295 > 100 µM | DMS-114 > 100 µM | NCI-H226 > 100 µM | EKVX > 100 µM | DMS-273 76.7 µM | A498 > 100 µM | HCT-116 > 100 µM | SK-MEL-28 > 100 µM | Malme-3M > 100 µM | SK-MEL-5 > 100 µM | SN12C > 100 µM

O=[N+]([O-])c1nccn1CC(O)CN1CC1 (centres undefined)
inactive: TK-10 > 100 µM | SK-OV-3 35.1 µM | HL-60 24.8 µM | SF-295 > 100 µM | DMS-114 50.7 µM | NCI-H226 94 µM | EKVX > 100 µM | DMS-273 27.4 µM | A498 > 100 µM | HCT-116 47.6 µM | SK-MEL-28 > 100 µM | Malme-3M > 100 µM | SK-MEL-5 71.8 µM | SN12C 61.8 µM
